What was measured:
Format in all cases: cell-based, human
A549/ATCC = experiment: NCI-60 one-dose screen (non-small cell lung cancer); conditions: 10 µM single dose, 48 h
Experimental: (§1) The obtained quinolinequinones were submitted to NCI, Bethesda, USA, and, as per standard protocol of NCI, all compounds were evaluated for their antiproliferative activity at single-dose assay (10 µM concentration in DMSO) on a panel of 60 cancer cell lines derived from leukemia, non-small-cell lung, colon, CNS, melanoma, ovarian, renal, prostate, and breast, as per protocol. Tested compounds were added to the microtiter culture plates followed by incubation for 48 h at 37 °C. Sulforhodamine B (SRB), a protein-binding dye, is used for endpoint determination. The percent of the growth of the treated cells was determined in comparison to the untreated control cells and the results of each tested compound were reported. Data from one-dose experiments pertain to the percentage growth at 10 μM [16, 17, 18].

EKVX = experiment: as above; conditions: 10 µM single dose, 48 h
Experimental: as §1

HOP-62 = experiment: as above; conditions: 10 µM single dose, 48 h
Experimental: as §1

HOP-92 = experiment: as above; conditions: 10 µM single dose, 48 h
Experimental: as §1

NCI-H226 [1] = experiment: as above; conditions: 10 µM single dose, 48 h
Experimental: as §1

NCI-H23 = experiment: as above; conditions: 10 µM single dose, 48 h
Experimental: as §1

NCI-H322M = experiment: as above; conditions: 10 µM single dose, 48 h
Experimental: as §1

NCI-H460 = experiment: as above; conditions: 10 µM single dose
Experimental: as §1

NCI-H522 = experiment: as above; conditions: 10 µM single dose, 48 h
Experimental: as §1

HCC-2998 = experiment: NCI-60 one-dose screen (colon cancer); conditions: 10 µM single dose, 48 h
Experimental: as §1

HCT-116 = experiment: NCI-60 one-dose screen (colon cancer); conditions: 10 µM single dose, 48 h
Experimental: as §1

HCT-15 = experiment: NCI-60 one-dose screen (colon cancer); conditions: 10 µM single dose, 48 h
Experimental: as §1

HT29 = experiment: NCI-60 one-dose screen (colon cancer)
Experimental: as §1

DU-145 = experiment: NCI-60 one-dose screen (prostate cancer); conditions: 10 µM single dose, 48 h
Experimental: as §1

PC-3 [2] = experiment: NCI-60 one-dose screen (prostate cancer); conditions: 10 µM single dose
Experimental: as §1

BT-549 [3] = experiment: NCI-60 one-dose screen (breast cancer); conditions: 10 µM single dose, 48 h
Experimental: as §1

HS 578T [4] = experiment: NCI-60 one-dose screen (breast cancer); conditions: 10 µM single dose, 48 h
Experimental: as §1

MCF7 [5] = experiment: NCI-60 one-dose screen (breast cancer); conditions: 10 µM single dose, 48 h
Experimental: as §1

MDA-MB-231/ATCC [6] = experiment: NCI-60 one-dose screen (breast cancer); conditions: 10 µM single dose, 48 h
Experimental: as §1

MDA-MB-468 = experiment: NCI-60 one-dose screen (breast cancer); conditions: 10 µM single dose, 48 h
Experimental: as §1

T-47D [7] = experiment: NCI-60 one-dose screen (breast cancer); conditions: 10 µM single dose, 48 h
Experimental: as §1

MOLT-4 = experiment: NCI-60 five-dose assay (leukemia); conditions: 48 h, SRB
NCI-H226 [8] = experiment: NCI-60 five-dose assay (non-small cell lung cancer); conditions: 48 h, SRB
SF-268 = experiment: NCI-60 five-dose assay (CNS cancer); conditions: 48 h, SRB
LOX IMVI = experiment: NCI-60 five-dose assay (melanoma); conditions: 48 h, SRB
UACC-62 = experiment: NCI-60 five-dose assay (melanoma); conditions: 48 h, SRB
OVCAR-3 = experiment: NCI-60 five-dose assay (ovarian cancer); conditions: 48 h, SRB
OVCAR-5 = experiment: NCI-60 five-dose assay (ovarian cancer); conditions: 48 h, SRB
NCI/ADR-RES = experiment: NCI-60 five-dose assay (ovarian cancer); conditions: 48 h, SRB
ACHN = experiment: NCI-60 five-dose assay (renal cancer); conditions: 48 h, SRB
CAKI-1 = experiment: NCI-60 five-dose assay (renal cancer); conditions: 48 h, SRB
SN12C = experiment: NCI-60 five-dose assay (renal cancer); conditions: 48 h, SRB
PC-3 [9] = experiment: NCI-60 five-dose assay (prostate cancer); conditions: 48 h, SRB
MCF7 [10] = experiment: NCI-60 five-dose assay (breast cancer); conditions: 48 h, SRB
MDA-MB-231/ATCC [11] = experiment: NCI-60 five-dose assay (breast cancer); conditions: 48 h, SRB
HS 578T [12] = experiment: NCI-60 five-dose assay (breast cancer); conditions: 48 h, SRB
BT-549 [13] = experiment: NCI-60 five-dose assay (breast cancer); conditions: 48 h, SRB
T-47D [14] = experiment: NCI-60 five-dose assay (breast cancer); conditions: 48 h, SRB
[15] = Homo sapiens, read-out: LC50 (the source's name)

SMILES: CCOc1ccc(NC2=C(Cl)C(=O)c3nc(C)ccc3C2=O)cc1 [AQQ3]
- GP (growth percentage) (A549/ATCC): 46.18%
- GP (growth percentage) (EKVX): −97.48%
- GP (growth percentage) (HOP-62): 72.15%
- GP (growth percentage) (HOP-92): −86.99%
- GP (growth percentage) (NCI-H226 [1]): −52.55%
- GP (growth percentage) (NCI-H23): −61.00%
- GP (growth percentage) (NCI-H322M): 32.37%
- GP (growth percentage) (NCI-H460; 48 h): 13.41%
- inhibition at 10 µM (NCI-H460; Homo sapiens): 86.6%
- GP (growth percentage) (NCI-H522): −61.57%
- GP (growth percentage) (HCC-2998): −55.70%
- GP (growth percentage) (HCT-116): −83.64%
- GP (growth percentage) (HCT-15): −83.19%
- GP (growth percentage) (HT29; 10 µM single dose, 48 h): 15.90%
- inhibition at 10 µM (HT29; Homo sapiens, HT-29, 10 µM single dose): 84.1%
- GP (growth percentage) (DU-145): −92.73%
- GP (growth percentage) (PC-3 [2]; 48 h): 10.40%
- inhibition at 10 µM (PC-3 [2]; Homo sapiens): 89.6%
- GP (growth percentage) (BT-549 [3]): 46.48%
- GP (growth percentage) (HS 578T [4]): 48.97%
- GP (growth percentage) (MCF7 [5]): −66.97%
- GP (growth percentage) (MDA-MB-231/ATCC [6]): −71.74%
- GP (growth percentage) (MDA-MB-468): −95.15%
- GP (growth percentage) (T-47D [7]): −43.85%
- TGI (MOLT-4): >100000 nM
- GI50 (MOLT-4; Homo sapiens): 2490 nM
- LC50 (MOLT-4; Homo sapiens): > 100000 nM
- TGI (NCI-H226 [8]): 4520 nM
- GI50 (NCI-H226 [8]; Homo sapiens): 1840 nM
- LC50 (NCI-H226 [8]; Homo sapiens): > 100000 nM
- TGI (SF-268): 3090 nM
- GI50 (SF-268; Homo sapiens): 1550 nM
- LC50 (concentration killing 50% of cells) (SF-268; Homo sapiens): 6140 nM
- TGI (LOX IMVI): 2330 nM
- GI50 (LOX IMVI; Homo sapiens): 1060 nM
- LC50 (concentration killing 50% of cells) (LOX IMVI; Homo sapiens): 5140 nM
- TGI (UACC-62): 3290 nM
- GI50 (UACC-62; Homo sapiens): 1810 nM
- LC50 (concentration killing 50% of cells) (UACC-62; Homo sapiens): 5970 nM
- TGI (OVCAR-3): 2190 nM
- GI50 (OVCAR-3; Homo sapiens): 962 nM
- CC50 (OVCAR-3; [15]): 4870 nM
- TGI (OVCAR-5): 3460 nM
- GI50 (OVCAR-5; Homo sapiens): 1920 nM
- LC50 (lethal concentration 50%) (OVCAR-5; Homo sapiens): 6250 nM
- TGI (NCI/ADR-RES): 4110 nM
- GI50 (NCI/ADR-RES; Homo sapiens): 1700 nM
- CC50 (NCI/ADR-RES; [15]): 9930 nM
- TGI (ACHN): 2920 nM
- GI50 (ACHN; Homo sapiens): 1570 nM
- LC50 (ACHN; Homo sapiens): 5450 nM
- TGI (CAKI-1): 2970 nM
- GI50 (CAKI-1; Homo sapiens): 1600 nM
- LC50 (lethal concentration, 50% net cell kill) (CAKI-1; Homo sapiens): 5510 nM
- TGI (SN12C): 2990 nM
- GI50 (SN12C; Homo sapiens): 1580 nM
- LC50 (concentration killing 50% of starting cells) (SN12C; Homo sapiens): 5660 nM
- TGI (PC-3 [9]): 2770 nM
- GI50 (PC-3 [9]; Homo sapiens): 1290 nM
- CC50 (PC-3 [9]; [15]): 5930 nM
- TGI (MCF7 [10]): 3820 nM
- GI50 (MCF7 [10]; Homo sapiens): 1540 nM
- LC50 (MCF7 [10]; Homo sapiens): 9440 nM
- TGI (MDA-MB-231/ATCC [11]): 2500 nM
- GI50 (MDA-MB-231/ATCC [11]; Homo sapiens): 1170 nM
- LC50 (concentration killing 50% of cells) (MDA-MB-231/ATCC [11]; Homo sapiens): 5340 nM
- TGI (HS 578T [12]): 5820 nM
- GI50 (HS 578T [12]; Homo sapiens): 2220 nM
- CC50 (HS 578T [12]; [15]): > 100000 nM
- TGI (BT-549 [13]): 2800 nM
- GI50 (BT-549 [13]; Homo sapiens): 1430 nM
- LC50 (concentration giving 50% net cell kill) (BT-549 [13]; Homo sapiens): 5490 nM
- TGI (T-47D [14]): 3910 nM
- GI50 (T-47D [14]; Homo sapiens, T47D): 1010 nM
- CC50 (T-47D [14]; Homo sapiens, T47D, read-out: LC50 (the source's name)): > 100000 nM

From paper PMC11200585, “Prospects for Prostate Cancer Chemotherapy: Cytotoxic Evaluation and Mechanistic Insights of Quinolinequinones with ADME/PK Profile” (Biomedicines, 2024)
